# Experiments:
# [1] = molecular target: T1, ATP-binding cassette sub-family C member 2 (Rattus norvegicus, UniProt Q63120); assay: TP_TRANSPORTER: Northern blot in vivo SD rat, liver; format: functional, organism-based, Sprague-Dawley
# [2] = molecular target: Multidrug resistance protein 1a (Rattus norvegicus) (UniProt Q6PSM0); assay: (§1) TP_TRANSPORTER: Northern blot in vitro, primary hepatocytes; format: functional, cell-based; conditions: Hepatocyte
# [3] = molecular target: T1, ATP-binding cassette sub-family C member 2; assay: (§2) TP_TRANSPORTER: Western in vitro, primary hepatocytes; format: functional, cell-based, Hepatocyte
# [4] = molecular target: T2, ATP-binding cassette sub-family C member 2 (Homo sapiens, UniProt Q92887); assay: as §2; format: functional, cell-based, Hepatocyte
# [5] = molecular target: T1, ATP-binding cassette sub-family C member 2; assay: as §1; format: functional, cell-based, Hepatocyte
# [6] = molecular target: T2, ATP-binding cassette sub-family C member 2; assay: as §1; format: functional, cell-based, Hepatocyte
# T1 sequence (Q63120 whole entry): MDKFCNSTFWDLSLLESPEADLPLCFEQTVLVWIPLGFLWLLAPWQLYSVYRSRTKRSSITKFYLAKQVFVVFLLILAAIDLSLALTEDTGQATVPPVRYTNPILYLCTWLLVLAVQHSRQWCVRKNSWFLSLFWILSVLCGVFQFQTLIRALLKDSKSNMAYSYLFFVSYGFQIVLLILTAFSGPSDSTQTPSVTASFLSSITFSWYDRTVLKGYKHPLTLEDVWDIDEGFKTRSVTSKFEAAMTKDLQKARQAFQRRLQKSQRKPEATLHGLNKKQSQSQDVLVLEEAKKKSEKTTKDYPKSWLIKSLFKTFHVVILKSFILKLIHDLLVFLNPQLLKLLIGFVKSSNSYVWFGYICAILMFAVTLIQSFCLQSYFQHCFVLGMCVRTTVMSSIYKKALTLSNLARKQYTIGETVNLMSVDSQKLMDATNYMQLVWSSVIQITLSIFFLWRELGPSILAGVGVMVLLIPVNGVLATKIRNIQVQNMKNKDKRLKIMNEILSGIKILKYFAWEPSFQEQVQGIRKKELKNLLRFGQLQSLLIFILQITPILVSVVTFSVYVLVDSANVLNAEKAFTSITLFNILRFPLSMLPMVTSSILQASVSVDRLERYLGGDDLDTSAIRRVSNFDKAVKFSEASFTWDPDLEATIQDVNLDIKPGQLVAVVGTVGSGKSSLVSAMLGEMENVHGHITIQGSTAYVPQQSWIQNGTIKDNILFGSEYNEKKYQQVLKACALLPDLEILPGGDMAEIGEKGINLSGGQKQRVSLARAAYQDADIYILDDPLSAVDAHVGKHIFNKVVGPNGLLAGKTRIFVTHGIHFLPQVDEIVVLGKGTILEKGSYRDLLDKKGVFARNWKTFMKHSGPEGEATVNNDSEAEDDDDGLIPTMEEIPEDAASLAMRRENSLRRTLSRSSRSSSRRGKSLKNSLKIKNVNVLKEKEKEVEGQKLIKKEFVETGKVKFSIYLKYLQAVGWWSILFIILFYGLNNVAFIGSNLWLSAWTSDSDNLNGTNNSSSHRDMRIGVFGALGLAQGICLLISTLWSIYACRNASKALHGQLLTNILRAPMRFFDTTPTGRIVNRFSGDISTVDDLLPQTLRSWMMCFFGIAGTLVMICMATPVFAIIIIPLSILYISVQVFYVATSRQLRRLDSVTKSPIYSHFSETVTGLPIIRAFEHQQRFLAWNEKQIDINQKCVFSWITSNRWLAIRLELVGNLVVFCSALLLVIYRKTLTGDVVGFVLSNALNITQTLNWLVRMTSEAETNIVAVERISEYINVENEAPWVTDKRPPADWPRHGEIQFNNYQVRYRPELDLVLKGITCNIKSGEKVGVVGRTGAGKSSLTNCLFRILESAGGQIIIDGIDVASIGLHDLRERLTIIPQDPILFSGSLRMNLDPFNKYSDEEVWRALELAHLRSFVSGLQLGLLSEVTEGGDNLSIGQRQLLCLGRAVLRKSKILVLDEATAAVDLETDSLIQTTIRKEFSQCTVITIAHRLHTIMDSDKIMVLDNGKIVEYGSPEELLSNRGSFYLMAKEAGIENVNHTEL
# T2 sequence (Q92887 whole entry): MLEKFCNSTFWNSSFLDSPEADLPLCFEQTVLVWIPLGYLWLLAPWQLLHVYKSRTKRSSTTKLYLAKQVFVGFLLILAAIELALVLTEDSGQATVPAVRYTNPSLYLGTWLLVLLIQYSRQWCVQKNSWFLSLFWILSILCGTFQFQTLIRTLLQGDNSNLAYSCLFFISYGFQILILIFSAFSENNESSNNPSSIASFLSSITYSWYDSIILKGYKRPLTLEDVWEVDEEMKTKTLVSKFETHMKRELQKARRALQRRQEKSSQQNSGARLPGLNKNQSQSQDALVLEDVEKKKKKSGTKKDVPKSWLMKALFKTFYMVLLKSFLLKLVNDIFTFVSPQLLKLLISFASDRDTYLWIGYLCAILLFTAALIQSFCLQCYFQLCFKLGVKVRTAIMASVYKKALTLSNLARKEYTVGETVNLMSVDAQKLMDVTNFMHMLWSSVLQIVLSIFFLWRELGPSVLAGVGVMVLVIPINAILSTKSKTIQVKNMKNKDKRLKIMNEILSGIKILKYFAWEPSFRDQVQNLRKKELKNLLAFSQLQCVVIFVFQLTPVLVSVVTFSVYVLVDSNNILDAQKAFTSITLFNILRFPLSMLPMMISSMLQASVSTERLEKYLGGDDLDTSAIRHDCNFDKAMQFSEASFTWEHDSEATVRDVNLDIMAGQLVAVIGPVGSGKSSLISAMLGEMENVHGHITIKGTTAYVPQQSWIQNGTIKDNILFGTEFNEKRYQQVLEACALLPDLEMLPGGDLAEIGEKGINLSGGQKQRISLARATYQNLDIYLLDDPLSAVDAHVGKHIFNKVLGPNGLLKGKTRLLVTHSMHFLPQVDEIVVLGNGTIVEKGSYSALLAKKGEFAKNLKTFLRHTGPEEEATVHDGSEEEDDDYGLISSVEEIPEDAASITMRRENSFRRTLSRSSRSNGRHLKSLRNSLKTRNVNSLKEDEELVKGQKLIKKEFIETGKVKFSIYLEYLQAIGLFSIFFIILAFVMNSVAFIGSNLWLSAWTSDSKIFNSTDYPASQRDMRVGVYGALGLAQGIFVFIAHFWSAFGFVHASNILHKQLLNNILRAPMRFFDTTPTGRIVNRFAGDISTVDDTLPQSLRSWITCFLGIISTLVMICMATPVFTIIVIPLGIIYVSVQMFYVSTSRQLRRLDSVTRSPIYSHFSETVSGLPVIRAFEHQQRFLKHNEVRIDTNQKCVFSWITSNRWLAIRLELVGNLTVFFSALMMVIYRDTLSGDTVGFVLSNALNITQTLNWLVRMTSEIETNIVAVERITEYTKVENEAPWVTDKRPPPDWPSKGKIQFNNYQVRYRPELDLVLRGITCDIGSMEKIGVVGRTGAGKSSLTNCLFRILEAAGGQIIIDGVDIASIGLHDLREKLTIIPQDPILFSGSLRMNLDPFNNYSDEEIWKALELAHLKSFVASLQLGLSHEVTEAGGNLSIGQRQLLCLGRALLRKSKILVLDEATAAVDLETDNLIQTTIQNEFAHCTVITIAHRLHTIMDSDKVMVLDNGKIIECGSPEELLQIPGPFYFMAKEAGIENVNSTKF
# Multidrug resistance protein 1a (Rattus norvegicus), sequence (Q6PSM0 as listed by the source): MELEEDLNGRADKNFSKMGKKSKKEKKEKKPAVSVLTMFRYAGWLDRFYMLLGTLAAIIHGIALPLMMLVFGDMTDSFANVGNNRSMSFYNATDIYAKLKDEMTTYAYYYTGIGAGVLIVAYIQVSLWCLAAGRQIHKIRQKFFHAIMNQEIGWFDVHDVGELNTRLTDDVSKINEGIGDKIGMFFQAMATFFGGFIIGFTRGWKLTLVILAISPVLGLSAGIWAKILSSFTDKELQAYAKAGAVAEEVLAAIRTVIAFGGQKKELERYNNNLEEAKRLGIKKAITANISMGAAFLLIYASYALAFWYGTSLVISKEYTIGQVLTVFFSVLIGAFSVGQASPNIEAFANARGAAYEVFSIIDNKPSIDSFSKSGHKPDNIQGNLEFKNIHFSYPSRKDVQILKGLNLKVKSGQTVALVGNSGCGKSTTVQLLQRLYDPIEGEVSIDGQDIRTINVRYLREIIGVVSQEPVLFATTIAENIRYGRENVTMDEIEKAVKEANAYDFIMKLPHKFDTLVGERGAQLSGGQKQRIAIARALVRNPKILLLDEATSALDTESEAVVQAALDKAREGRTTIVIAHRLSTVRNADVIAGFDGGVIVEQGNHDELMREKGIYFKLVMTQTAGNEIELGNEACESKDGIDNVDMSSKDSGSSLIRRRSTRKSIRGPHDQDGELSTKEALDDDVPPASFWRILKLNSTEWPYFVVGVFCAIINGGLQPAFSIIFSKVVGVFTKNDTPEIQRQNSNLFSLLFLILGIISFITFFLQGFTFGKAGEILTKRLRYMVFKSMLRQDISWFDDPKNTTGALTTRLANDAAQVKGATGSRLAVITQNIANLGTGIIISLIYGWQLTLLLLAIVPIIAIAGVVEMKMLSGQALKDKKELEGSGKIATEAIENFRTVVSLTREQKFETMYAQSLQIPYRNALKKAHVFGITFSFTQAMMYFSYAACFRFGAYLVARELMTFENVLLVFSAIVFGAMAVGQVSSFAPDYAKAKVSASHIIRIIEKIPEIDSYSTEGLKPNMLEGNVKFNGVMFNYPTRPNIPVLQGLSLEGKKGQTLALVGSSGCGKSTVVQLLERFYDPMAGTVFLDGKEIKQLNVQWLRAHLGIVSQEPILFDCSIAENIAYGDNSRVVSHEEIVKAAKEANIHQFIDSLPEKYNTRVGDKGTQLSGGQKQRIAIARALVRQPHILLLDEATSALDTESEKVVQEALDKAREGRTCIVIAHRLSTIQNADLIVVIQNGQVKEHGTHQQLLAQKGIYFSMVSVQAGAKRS
smiles,measurement,setting,value
CCC1(c2ccccc2)C(=O)NC(=O)NC1=O [PHENOBARBITAL],Activity,[1],is not an inducer [-]
same,Activity,[2],is not an inducer [-]
same,Activity,[3],inducer [+]
same,Activity,[4],inducer [+]
same,Activity,[5],inducer [+]
same,Activity,[6],inducer [+]

# From ChEMBL document CHEMBL2073981, “Differential regulation of multidrug resistance-associated protein 2 (MRP2) and cytochromes P450 2B1/2 and 3A1/2 in phenobarbital-treated hepatocytes” (Biochem Pharmacol, 2002)
